This note sets out measurements from patent US8785488B2 (Exelixis Patent Company LLC, priority 2009, dated 2014).

Each structure is given as a SMILES string. pEC50: −log10 of the molar value.

For one assay, the target named is T1, human TGR5 (h-TGR5) (Homo sapiens, UniProt Q8TDU6).
T1 construct: expressed in transfected cells
T1 sequence (Q8TDU6 1-330): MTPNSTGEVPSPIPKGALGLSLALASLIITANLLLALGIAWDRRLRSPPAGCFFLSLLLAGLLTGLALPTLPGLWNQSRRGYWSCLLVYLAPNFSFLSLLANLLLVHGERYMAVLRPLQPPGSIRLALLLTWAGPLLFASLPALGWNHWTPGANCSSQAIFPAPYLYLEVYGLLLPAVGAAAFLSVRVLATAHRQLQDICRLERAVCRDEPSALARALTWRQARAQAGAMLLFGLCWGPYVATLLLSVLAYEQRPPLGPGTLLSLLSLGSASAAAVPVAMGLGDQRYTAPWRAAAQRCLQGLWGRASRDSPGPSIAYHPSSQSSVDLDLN
In words: TGR5/CRE-Luciferiase Assay (HEK 293 hTGR5/CRE-Luc cells). In kind it is cell-based. Particulars: h-TGR5 CRE-Luc EC50, Table 1; read-out: CRE-Luc (EC50). An outline of the steps: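 HEK293 cells stably carrying hTGR5 and a CRE-luciferase reporter were exposed to serially diluted compounds (diluted in DMEM with 5% DMSO) for 6 h. Cells were then lysed in luciferase buffer, luminescence was read, and EC50 values were derived from dose-response curves.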

A further assay addresses T2, h-TGR5 (Homo sapiens, UniProt Q8TDU6).
T2 construct: expressed in transfected cells
T2 sequence (Q8TDU6 1-330): T1 sequence (Q8TDU6 1-330)
As to the kind of experiment: TGR5 cAMP Assay using Cisbio cAMP Dynamic2 htrf kit (hTGR5CRE-luc HEK 293 cells). It is filed as cell-based. Particulars: h-TGR5 cAMP EC50, Table 1; read-out: cAMP (EC50). The gist of the method:
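[…], 4000 hTGR5CRE-luc HEK 293 cells per well, with 0.5 mM IBMX and d2-cAMP, were incubated 30 min at room temperature with compounds in 8-point half-log series, in quadruplicate.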

Take `COc1cc(C(C)(C)c2cnc(SCc3c(F)cc(S(=O)(=O)NCCS(=O)(=O)O)cc3F)n2-c2ccc(F)cc2)ccc1Cl` [2-({[4-({[5-{1-[4-chloro-3-(methyloxy)phenyl]-1-methylethyl}-1-(4-fluorophenyl)-1H-imidazol-2-yl]thio}methyl)-3,5-difluorophenyl]sulfonyl}amino)ethanesulfonic acid]: the pEC50 at human TGR5 (h-TGR5) and on h-TGR5 was over 7.00 throughout.

As to `COc1cc(C(C)(C)c2cnc(SCc3ccc(Cl)c(-c4nnn[nH]4)c3)n2-c2ccc(F)cc2)ccc1Cl` [5-[2-chloro-5-({[5-{l-[4-chloro-3-(methyloxy)phenyl]-1-methylethyl}-1-(4-fluorophenyl)-1H-imidazol-2-yl]thio}methyl)phenyl]-1H-tetrazole], the pEC50 on human TGR5 (h-TGR5) is over 7.00; at h-TGR5, 6.00 to 7.00.

Turning to `COc1cc(-n2c(C(C)(C)c3ccc(S(N)(=O)=O)c(Cl)c3)cnc2SCc2ccc(S(=O)(=O)NC(=O)NN3CCOCC3)cc2Cl)ccc1F` [4-{[(5-{1-[4-(aminosulfonyl)-3-chlorophenyl]-1-methylethyl}-1-[4-fluoro-3-(methyloxy)phenyl]-1H-imidazol-2-yl)thio]methyl}-3-chloro-N-[(morpholin-4-ylamino)carbonyl]benzenesulfonamide], the pEC50 on human TGR5 (h-TGR5) was 6.00 to 7.00; on h-TGR5 it was over 7.00.

For `COc1ccc(C(C)(C)c2cnc(SCc3ccc(F)c(C(N)=O)c3)n2-c2ccc(F)cc2)cc1OC` [5-({[5-{1-[3,4-bis(methyloxy)phenyl]-1-methylethyl}-1-(4-fluorophenyl)-1H-imidazol-2-yl]thio}methyl)-2-fluorobenzamide], the pEC50 at human TGR5 (h-TGR5) and at h-TGR5 was over 7.00 throughout.

As to `COc1cc(C(C)(C)c2cnc(SCc3c(F)cc(OCCNC(=N)NC(=N)N)cc3F)n2-c2ccc(F)cc2)ccc1Cl` [N-(2-{[4-({[5-{1-[4-chloro-3-(methyloxy)phenyl]-1-methylethyl}-1-(4-fluorophenyl)-1H-imidazol-2-yl]thio}methyl)-3,5-difluorophenyl]oxy}ethyl)imido dicarbonimidic diamide], the pEC50 on human TGR5 (h-TGR5) and on h-TGR5 was over 7.00 each time.

`CC(C)(c1ccc(Cl)c(Cl)c1)c1cnc(SCc2cc(C(=O)O)ccc2Cl)n1-c1ccc(F)cc1` [4-chloro-3-[({5-[1-(3,4-dichlorophenyl)-1-methylethyl]-1-(4-fluorophenyl)-1H-imidazol-2-yl}thio)methyl]benzoic acid]: the pEC50 at human TGR5 (h-TGR5) and on h-TGR5 was 6.00 to 7.00 each time.

For the molecule `CC(C)(c1ccc(Cl)c(OCCCN2CCOCC2)c1)c1cnc(SCc2c(F)cccc2Cl)n1-c1ccc(F)cc1`, the pEC50 on human TGR5 (h-TGR5) and at h-TGR5 was 6.00 to 7.00 in each case.

Regarding `COc1cc(C(C)(C)c2cnc(SCc3ccnc(N)c3)n2-c2ccc(F)cc2)ccc1Cl` [4-({[5-{1-[4-chloro-3-(methyloxy)phenyl]-1-methylethyl}-1-(4-fluorophenyl)-1H-imidazol-2-yl]thio}methyl)pyridin-2-amine], the pEC50 at human TGR5 (h-TGR5) and at h-TGR5 was 6.00 to 7.00 in each case.

`COc1cc(C(C)(C)c2cnc(SCc3c(F)cc(-c4nnn[nH]4)cc3F)n2-c2ccc(F)cc2)ccc1Cl` [5-[4-({[5-{1-[4-chloro-3-(methyloxy)phenyl]-1-methylethyl}-1-(4-fluorophenyl)-1H-imidazol-2-yl]thio}methyl)-3,5-difluorophenyl]-1H-tetrazole]: the pEC50 on human TGR5 (h-TGR5) and at h-TGR5 was over 7.00 throughout.

For `COc1cc(C(C)(C)c2cnc(SCc3c(F)cc(OCCCNC(=N)N)cc3Cl)n2-c2ccc(F)cc2)ccc1Cl` [1-(3-{[3-chloro-4-({[5-{1-[4-chloro-3-(methyloxy)phenyl]-1-methylethyl}-1-(4-fluorophenyl)-1H-imidazol-2-yl]thio}methyl)-5-fluorophenyl]oxy}propyl)guanidine], the pEC50 on human TGR5 (h-TGR5) and on h-TGR5 was over 7.00 throughout.

With `COc1cc(-n2c(C(C)(C)c3ccc(F)c(F)c3)cnc2SCc2ccc(S(=O)(=O)NC(=O)NN3CCCC3)cc2Cl)ccc1F` [3-chloro-4-[({5-[1-(3,4-difluorophenyl)-1-methylethyl]-1-[4-fluoro-3-(methyloxy)phenyl]-1H-imidazol-2-yl}thio)methyl]-N-[(pyrrolidin-1-ylamino)carbonyl]benzenesulfonamide], the pEC50 on human TGR5 (h-TGR5) and on h-TGR5 was 6.00 to 7.00 each time.

As to `COc1cc(C(C)(C)c2cnc(SCc3ccc(C(=O)O)c(F)c3)n2-c2ccc(F)cc2)ccc1Cl` [4-({[5-{1-[4-chloro-3-(methyloxy)phenyl]-1-methylethyl}-1-(4-fluorophenyl)-1H-imidazol-2-yl]thio}methyl)-2-fluorobenzoic acid], the pEC50 at human TGR5 (h-TGR5) is 6.00 to 7.00; at h-TGR5, over 7.00.

Consider `COc1ccc(C(C)(C)c2cnc(SCc3c(F)cc(C(=O)O)cc3Cl)n2-c2ccc(F)cc2)cc1Cl` [3-chloro-4-({[5-{1-[3-chloro-4-(methyloxy)phenyl]-1-methylethyl}-1-(4-fluorophenyl)-1H-imidazol-2-yl]thio}methyl)-5-fluorobenzoic acid], for which the pEC50 at human TGR5 (h-TGR5) and at h-TGR5 was over 7.00 each time.

As to `CCOC(=O)NS(=O)(=O)c1ccc(CSc2ncc(C(C)(C)c3ccc(Cl)c(OC)c3)n2-c2ccc(F)cc2)c(F)c1` [ethyl {[4-({[5-{1-[4-chloro-3-(methyloxy)phenyl]-1-methylethyl}-1-(4-fluorophenyl)-1H-imidazol-2-yl]thio}methyl)-3-fluorophenyl]sulfonyl}carbamate], the pEC50 at human TGR5 (h-TGR5) and at h-TGR5 was over 7.00 throughout.

Consider `CC(C)(c1ccc(Cl)c(Cl)c1)c1cnc(SCc2ccc(F)cc2Cl)n1-c1ccc(F)c(CO)c1` [[5-(2-{[(2-chloro-4-fluorophenyl)methyl]thio}-5-[1-(3,4-dichlorophenyl)-1-methylethyl]-1H-imidazol-1-yl)-2-fluorophenyl]methanol], for which the pEC50 on human TGR5 (h-TGR5) and on h-TGR5 was 6.00 to 7.00 in each case.

Regarding `COc1cc(C(C)(C)c2cnc(SCc3c(F)cc(C(=O)N[C@@H](CCCN)C(=O)O)cc3Cl)n2-c2ccc(F)cc2)ccc1Cl` [N-2-{[3-chloro-4-({[5-{1-[4-chloro-3-(methyloxy)phenyl]-1-methylethyl}-1-(4-fluorophenyl)-1H-imidazol-2-yl]thio}methyl)-5-fluorophenyl]carbonyl}-L-ornithine], the negative logarithm of the EC50 (pEC50) on human TGR5 (h-TGR5) and at h-TGR5 was over 7.00 each time.

Regarding `COc1cc(C(C)(C)c2cnc(SCc3ccc(F)c(-c4nnn[nH]4)c3)n2-c2ccc(F)cc2)ccc1Cl` [5-[5-({[5-{1-[4-chloro-3-(methyloxy)phenyl]-1-methylethyl}-1-(4-fluorophenyl)-1H-imidazol-2-yl]thio}methyl)-2-fluorophenyl]-1H-tetrazole], the pEC50 at human TGR5 (h-TGR5) and on h-TGR5 was over 7.00 in each case.

For the molecule `COc1cc(C(C)(C)c2cnc(SCc3c(F)cc(OCCNC(=N)N)cc3Cl)n2-c2ccc(F)cc2)ccc1F` [1-(2-{[3-chloro-5-fluoro-4-({[5-{1-[4-fluoro-3-(methyloxy)phenyl]-1-methylethyl}-1-(4-fluorophenyl)-1H-imidazol-2-yl]thio}methyl)phenyl]oxy}ethyl)guanidine], the pEC50 on human TGR5 (h-TGR5) and at h-TGR5 was over 7.00 throughout.

Consider `CC(C)(c1ccc(F)c(F)c1)c1cnc(SCc2ccc(S(=O)(=O)NC(=O)NN3CCCC3)cc2Cl)n1-c1ccc(F)c(F)c1` [3-chloro-4-[({1-(3,4-difluorophenyl)-5-[1-(3,4-difluorophenyl)-1-methylethyl]-1H-imidazol-2-yl}thio)methyl]-N-[(pyrrolidin-1-ylamino)carbonyl]benzenesulfonamide], for which the pEC50 on human TGR5 (h-TGR5) was 6.00 to 7.00; on h-TGR5 it was 5.00 to 6.00.

As to `COc1ccc(C(C)(C)c2cnc(SCc3cc(F)ccc3Cl)n2-c2ccc(F)cc2)cc1Cl` [2-{[(2-chloro-5-fluorophenyl)methyl]thio}-5-{1-[3-chloro-4-(methyloxy)phenyl]-1-methylethyl}-1-(4-fluorophenyl)-1H-imidazole], the pEC50 at human TGR5 (h-TGR5) was over 7.00; on h-TGR5, 6.00 to 7.00.

As for `CC(C)(c1ccc(CO)c(Cl)c1)c1cnc(SCc2ccc(F)cc2Cl)n1-c1ccc(F)cc1` [(2-chloro-4-{1-[2-{[(2-chloro-4-fluorophenyl)methyl]thio}-1-(4-fluorophenyl)-1H-imidazol-5-yl]-1-methylethyl}phenyl)methanol], the pEC50 at human TGR5 (h-TGR5) and on h-TGR5 was 6.00 to 7.00 in each case.

For `COc1ccc(C(C)(C)c2cnc(SCc3ccc(Cl)c(-c4nnn[nH]4)c3)n2-c2ccc(F)cc2)cc1Cl` [5-[2-chloro-5-({[5-{1-[3-chloro-4-(methyloxy)phenyl]-1-methylethyl}-1-(4-fluorophenyl)-1H-imidazol-2-yl]thio}methyl)phenyl]-1H-tetrazole], the values for the pEC50 on human TGR5 (h-TGR5) and on h-TGR5 were over 7.00 and 6.00 to 7.00, respectively.

Consider `CC(C)(c1ccc(Cl)c(Cl)c1)c1cnc(SCc2ccc(C(=O)NCCS(=O)(=O)O)cc2F)n1-c1ccc(F)cc1` [2-[({4-[({5-[1-(3,4-dichlorophenyl)-1-methylethyl]-1-(4-fluorophenyl)-1H-imidazol-2-yl}thio)methyl]-3-fluorophenyl}carbonyl)amino]ethanesulfonic acid-sodium (1:1)], for which the pEC50 is 6.00 to 7.00 on human TGR5 (h-TGR5) and over 7.00 at h-TGR5.

As a reminder, the pEC50 is the EC50 on a negative log10 scale, so that one unit is a factor of ten.
